Data published in paper PMC5670239, “Structural basis for mutually exclusive co-transcriptional nuclear cap-binding complexes with either NELF-E or ARS2” (Nature Communications, 2017).

Target: CBC-NELF-E 244–380 (Homo sapiens, UniProt P52298)
Assay: ITC, m^7GTP titrated to CBC saturated with NELF-E 244–380
Format: binding
Excerpt: Supplementary Figure 7. Influence of ARS2 and NELF-E on m7GTP binding to CBC.
Representative isothermal titration calorimetry data, presented as in the caption to Figure 1C,
allowing determination of the affinity of CBC to m7GTP in the absence (left) or in the
presence of bound ARS2827-871 (middle) or NELF-E244-380 (right). CBC or CBC saturated
with 2.2 molar excess of ARS2827-871 or NELF-E244-380 in the sample cell was titrated by
m7GTP. KD values represent the average from at least two independent experiments (see […]

CBC-NELF-E 244–380, sequence (P52298 whole entry): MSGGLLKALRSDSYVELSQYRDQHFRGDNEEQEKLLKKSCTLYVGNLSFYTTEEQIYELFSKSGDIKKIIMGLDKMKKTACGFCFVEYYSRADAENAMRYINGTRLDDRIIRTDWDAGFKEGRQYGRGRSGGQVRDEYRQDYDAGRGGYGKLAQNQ
CBC-NELF-E 244–380, sequence (Q09161 20-790 partner): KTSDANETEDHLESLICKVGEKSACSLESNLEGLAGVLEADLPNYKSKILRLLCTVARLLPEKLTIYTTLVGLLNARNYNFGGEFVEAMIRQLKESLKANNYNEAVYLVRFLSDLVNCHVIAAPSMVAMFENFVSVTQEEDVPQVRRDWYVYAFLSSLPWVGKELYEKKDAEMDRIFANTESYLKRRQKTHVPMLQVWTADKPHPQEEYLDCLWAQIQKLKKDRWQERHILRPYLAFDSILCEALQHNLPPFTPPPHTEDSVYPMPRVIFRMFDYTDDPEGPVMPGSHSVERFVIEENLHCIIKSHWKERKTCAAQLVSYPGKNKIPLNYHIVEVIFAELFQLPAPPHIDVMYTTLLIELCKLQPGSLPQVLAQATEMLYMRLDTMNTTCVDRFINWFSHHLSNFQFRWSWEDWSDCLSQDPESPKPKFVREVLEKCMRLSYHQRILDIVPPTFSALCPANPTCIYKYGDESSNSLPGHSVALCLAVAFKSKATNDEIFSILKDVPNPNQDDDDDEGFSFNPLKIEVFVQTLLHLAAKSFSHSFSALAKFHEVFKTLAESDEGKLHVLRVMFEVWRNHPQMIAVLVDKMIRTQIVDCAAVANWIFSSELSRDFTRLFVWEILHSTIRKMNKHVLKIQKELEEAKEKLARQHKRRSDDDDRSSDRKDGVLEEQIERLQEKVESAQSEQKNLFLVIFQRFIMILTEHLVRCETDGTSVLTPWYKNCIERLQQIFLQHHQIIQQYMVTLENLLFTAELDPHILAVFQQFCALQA
CBC-NELF-E 244–380, sequence (P18615 244-380 partner): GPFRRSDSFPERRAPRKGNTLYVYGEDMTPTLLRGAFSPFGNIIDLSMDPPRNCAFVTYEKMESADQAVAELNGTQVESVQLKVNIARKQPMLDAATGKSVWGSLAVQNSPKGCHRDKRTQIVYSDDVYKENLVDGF

Kd (25 °C, pH 7.8, CBC saturated with 2.2 molar excess of NELF-E 244–380, titrated by m^7GTP, mean ± SD of 3 experiments, SD): 44 ± 2 nM | Increase of the affinity of CBC for cap (m^7GTP) by saturating NELF-E (compared to m^7GTP binding to CBC alone): ~ 3 factor
SMILES: C[n+]1cn([C@@H]2O[C@H](COP(=O)(O)OP(=O)([O-])OP(=O)(O)O)[C@@H](O)[C@H]2O)c2nc(N)[nH]c(=O)c21 [m^7GTP]
